Patent US6083964A, “Optical resolution of racemic aminoalkylpyridine anticonvulsants and (+) aminoalkylpyridine enantiomers as highly potent orally effective anticonvulsant drugs and excitatory amino acid antagonists” (K and K Biosciences, Inc., priority 1999, dated 2000)
Where two headings read alike, the source gives them in different places.

Columns and labels:
[1] = Neurological deficit, positional sense test and gait and stance test, rats, p.o.; set-up: species or system rat (Sprague-Dawley); details: rat, in vivo, po
Experimental: Neurotoxicity is determined by the rotorod ataxia test in mice and by the positional sense test and gait and stance test in the rat. The following Table 2 presents the results of these anticonvulsant tests with respect to several (+) and (-) AAP enantiomeric compounds derived from optical resolution of racemic AAPs of the present invention. This Table 2 identifies the specific compounds tested by their chemical name and provides the test model, the route of administration, the animal species used, and the anticonvulsant activity and toxicity in terms of ED50 and TD50 values, (the median effective and toxic dose respectively), when intraperitoneally administered to mice, and when orally administered to rats. […] This species will be the subject of the complete anticonvulsant quantification test evaluation as described above, but after oral (gavage) administration of the candidate compound. […] Neurological deficit in rats is examined by the positional sense test and gait and stance test. […] Inability to do so rapidly indicates a neurologic deficit. In the gait and stance test, a neurologic deficit is indicated by a circular or a zigzag gait, ataxia, abnormal spread of the legs, abnormal body posture, tremor, hyperactivity, lack of exploratory behavior, somnolence, stupor, or catalepsy.

[2] = test system: maximal electroshock seizure (MES) in rats; assay: Maximal electroshock seizure (MES) test, rats, p.o.; format: in vivo, rat (Sprague-Dawley); details: p.o.; for ED50: Rattus norvegicus, po, MES test, read-out: ED50; for % protection (lowest and highest) during 4 hour period / P.I. (protective index, TD50/ED50): rat, MES; for % protection (lowest and highest) during 4 hour period: 30 mg/kg, 5 time points 0.25-4 hours, 4 rats per point
Description: (§1) The (+) AAP enantiomers obtained by optical resolution of racemic AAPs and the resulting highly orally effective anticonvulsant compositions of this invention are useful in the treatment of convulsive disorders. […] A series of (+) AAP enantiomers and (-) AAP enantiomers of this invention has been evaluated for anticonvulsant activity by the intraperitoneal (i.p.) and by the oral (p.o.) route using two standard seizure models in the mouse and in the rat, the maximal electroshock seizure (MES) test and the subcutaneous pentylenetetrazol (Metrazole) seizure threshold (scMet) test. […] The following Table 2 presents the results of these anticonvulsant tests with respect to several (+) and (-) AAP enantiomeric compounds derived from optical resolution of racemic AAPs of the present invention. This Table 2 identifies the specific compounds tested by their chemical name and provides the test model, the route of administration, the animal species used, and the anticonvulsant activity and toxicity in terms of ED50 and TD50 values, (the median effective and toxic dose respectively), when intraperitoneally administered to mice, and when orally administered to rats. The Maximal Electroshock Seizure Test (MES): Maximal electroshock seizures are elicited with a 60 Hz alternating current of 50 mA intensity in mice and about 150 mA intensity in rats (5-7 times that necessary to elicit minimal electroshock seizures), delivered for 0.2 sec via corneal electrodes. A drop of 0.9% saline is instilled in the eye prior to application of the electrodes in order to […]. Abolition of the hind limb tonic extension component of the seizure is defined as protection and results are expressed as number of animals protected/number of animals tested. The Subcutaneous Pentylenetetrazol (Metrazole) Seizure Threshold Test (scMet): A 0.5% solution of 85 mg/kg of pentylenetetrazol is administered subcutaneously in the posterior midline 30 minutes or 4 hours after drug administration to the animal. […] This species will be the subject of the complete anticonvulsant quantification test evaluation as described above, but after oral (gavage) administration of the candidate compound.

[3] = test system: maximal electroshock seizure (MES) in mice; assay: Maximal electroshock seizure (MES) test, mice, i.p.; format: in vivo, mouse (male Carworth Farms #1); details: for P.I. (protective index, TD50/ED50): MES; for ED50: MES test
Description: as §1, with “rats. In mice, i.p.: All compounds are emulsified in 0.5% methylcellulose. The solvent has been tested for anticonvulsant and toxic effects and found to introduce no significant bias into the testing of anticonvulsant activity. The compounds are administered intraperitoneally in a volume of 0.01 ml/gm to male Carworth Farms #1 mice weighing about 20 gm. All compounds are tested at least at three dose levels (30, 100 and 300 mg/kg) at 30 minutes and 4 hours after their administration.” for “rats.”, “Anticonvulsant Quantification in Mice i.p.: The ED50 values are determined in” for “This species will be”, “MES, scMet and rotorod ataxia test. To determine the ED50 values, five logarithmically spaced doses” for “subject”, “the” for “the complete anticonvulsant quantification”, “compound are administered to animals (male Carworth Farms #1 mice) in groups of eight, to cover 0-100% protection, and the dose required to protect 50%” for “evaluation as described above, but after oral (gavage) administration”, “animals (ED50) together with its 95% confidence limits, is determined graphically.” for “candidate compound.”

[4] = Neurotoxicity, rotorod ataxia test, mice, i.p.; set-up: species or system mouse (male Carworth Farms #1); details: mouse, in vivo, ip, TD50
Experimental: (§2) Neurotoxicity is determined by the rotorod ataxia test in mice and by the positional sense test and gait and stance test in the rat. The following Table 2 presents the results of these anticonvulsant tests with respect to several (+) and (-) AAP enantiomeric compounds derived from optical resolution of racemic AAPs of the present invention. This Table 2 identifies the specific compounds tested by their chemical name and provides the test model, the route of administration, the animal species used, and the anticonvulsant activity and toxicity in terms of ED50 and TD50 values, (the median effective and toxic dose respectively), when intraperitoneally administered to mice, and when orally administered to rats. In mice, i.p.: All compounds are emulsified in 0.5% methylcellulose. The solvent has been tested for anticonvulsant and toxic effects and found to introduce no significant bias into the testing of anticonvulsant activity. The compounds are administered intraperitoneally in a volume of 0.01 ml/gm to male Carworth Farms #1 mice weighing about 20 gm. All compounds are tested at least at three dose levels (30, 100 and 300 mg/kg) at 30 minutes and 4 hours after their administration. Neurotoxicity is evaluated in mice by the rotorod ataxia test. The animal is placed on a wooden rod of 1 and 1/8 diameter rotating at 6 rpm. Normal mice can remain on a rod rotating at this speed indefinitely. […] Anticonvulsant Quantification in Mice i.p.: The ED50 values are determined in the MES, scMet and rotorod ataxia test. To determine the ED50 values, five logarithmically spaced doses of the test compound are administered to animals (male Carworth Farms #1 mice) in groups of eight, to cover 0-100% protection, and the dose required to protect 50% of the animals (ED50) together with its 95% confidence limits, is determined graphically.

[5] = test system: neurotoxicity (rotorod ataxia) in mice; assay: Neurotoxicity, rotorod ataxia test, mice, i.p.; set-up: species or system mouse (male Carworth Farms #1); details: mouse, in vivo, ip
Experimental: as §2

[6] = test system: maximal electroshock seizure (MES) in mice; details: mouse, in vivo; cited from earlier work
[7] = test system: pentylenetetrazol (Metrazole) seizure threshold in mice; details: cited from earlier work; for amounts of PTZ required to produce the endpoints (in words): mouse, in vivo
[8] = Mus musculus, ip, read-out: ED50

SMILES: CC(Nc1ccc(Cl)c(Cl)c1)c1ccncc1 (single isomer, unassigned; (+)) [Compound 5, (+) N-(3,4-Dichlorophenyl)-1-(4-pyridyl)ethylamine]
- TD50 [1]: > 500 mg/kg
- ED50 [2]: 32.3 mg/kg
- % protection (lowest and highest) during 4 hour period ([2]; listed as (3) (+) Enantiomer): 0-100%
- P.I. (protective index, TD50/ED50) [2]: > 15.5
- P.I. (protective index, TD50/ED50) ([3]; listed as (3) (+) Enantiomer): > 6.6
- ED50 [3, 8]: 76.1 mg/kg
- TD50 [4]: > 500 mg/kg

SMILES: CCC(Nc1ccc(Cl)cc1)c1ccncc1 (single isomer, unassigned; (+)) [Compound 7, (+) N-(4-Chlorophenyl)-1-(4-pyridyl)propylamine]
- % protection (lowest and highest) during 4 hour period ([2]; listed as (4) (+) Enantiomer): 0-75%
- P.I. (protective index, TD50/ED50) ([3]; listed as (4) (+) Enantiomer): 2.9
- ED50 [3, 8]: 109 mg/kg
- TD50 [4]: 322 mg/kg

SMILES: CCC(Nc1ccc(Cl)c(Cl)c1)c1ccncc1 (single isomer, unassigned; (+)) [Compound 9, (+) N-(3,4-Dichlorophenyl)-1-(4-pyridyl)propylamine]
- % protection (lowest and highest) during 4 hour period ([2]; listed as (5) (+) Enantiomer): 0-75%
- P.I. (protective index, TD50/ED50) ([3]; listed as (5) (+) Enantiomer): 3.0
- ED50 [3, 8]: 91.9 mg/kg
- TD50 [4]: 279 mg/kg

SMILES: CC(Nc1ccc(Br)cc1)c1ccncc1 (single isomer, unassigned; (+)) [Compound 11, (+) N-(4-Bromophenyl)-1-(4-pyridyl)ethylamine]
- TD50 [1]: > 500 mg/kg
- ED50 [2]: 9.3 mg/kg
- P.I. (protective index, TD50/ED50) [2]: > 53.7
- ED50 ([3]; listed as (6) (+) Enantiomer): 34.7 mg/kg
- P.I. (protective index, TD50/ED50) ([3]; listed as (6) (+) Enantiomer): 3.9
- TD50 [5]: 133.9 mg/kg

SMILES: Cc1cccc(C)c1OCC(C)N (centres unmarked) [Mexiletine]
- MES test activity (in words) [6]: potent in the MES test
- seizure threshold (in words) ([7]; doses slightly above the MES ED50 in mice): lowers seizure threshold at doses slightly above the MES ED50 in mice

SMILES: CCC1(C)CC(=O)NC1=O (centres unmarked) [ethosuximide]
- amounts of PTZ required to produce the endpoints (in words) [7]: increase the amounts of PTZ required to produce the above endpoints

SMILES: CCC1(c2ccccc2)C(=O)NC(=O)NC1=O [phenobarbital]
- amounts of PTZ required to produce the endpoints (in words) [7]: increase the amounts of PTZ required to produce the above endpoints

SMILES: CCCC(CCC)C(=O)O [valproic acid]
- amounts of PTZ required to produce the endpoints (in words) [7]: increase the amounts of PTZ required to produce the above endpoints
